2 molecules from paper PMC12892976, “Alkylation-based optimization of antifungal FPPS inhibitors yields a potent, broad-spectrum lipophilic zoledronate derivative” (mBio, 2025) can be followed below.

Assay [1] concerns C. albicans. Nature of the assay: ergosterol quantitation. It is filed as cell-based, Candida albicans. Conditions: 1× MIC vs no-drug control. As for the experimental part: (§1) Treated cultures were incubated at 30°C with shaking for 18 h for C. albicans and A. fumigatus and for 32 h for C. neoformans. Cell membrane ergosterol was then extracted and quantified as described previously ([48]).

Assay [2] concerns C. neoformans. Nature of the assay: membrane permeabilization, nucleic acid leakage. It is filed as cell-based, Cryptococcus neoformans. As for the experimental part:
(§2) Membrane permeabilization was determined by measuring the leakage of nucleic acid into the supernatant ([19]). […] Suspensions were incubated at 30°C with shaking at 200 rpm for 6 h, then passed through a 0.45 µm syringe filter. The A260 of each filtrate was measured with a DS-11 FX +benchtop spectrophotometer (DeNovix).

The test system of assay [3] is C. albicans. Nature of the assay: lipid peroxidation, TBARS assay (MDA). It counts as cell-based, Candida albicans. The procedure:
(§3) Cultures were incubated overnight, pelleted, and resuspended in 1 mL ice-cold PBS. Malondialdehyde (MDA) was extracted and quantified using a TBARS assay kit (Cayman Chemical #700870) according to the manufacturer’s instructions. MDA was normalized to total protein content in cell lysates.

The subject of assay [4] is A. fumigatus. Nature of the assay: membrane permeabilization, nucleic acid leakage. It counts as cell-based, Aspergillus fumigatus. The procedure:
as §2

The subject of assay [5] is A. fumigatus. Nature of the assay: membrane depolarization, diS-C3(3). It counts as cell-based, Aspergillus fumigatus. As to conditions: diS-C3(3) emission maximum. As for the experimental part:
(§4) Membrane depolarization was determined using potential-sensitive fluorophore diS-C3(3) (Sigma), as described previously ([51]). Yeast cells and A. fumigatus conidia were treated as described above, then washed with citrate phosphate buffer and labeled with 20 nM diS-C3(3) at a final concentration of 10^6 cells/mL for yeasts and 10^4 conidia/mL for Aspergillus. Cells were transferred to a microplate (Invitrogen), then emission spectra between 560 and 585 nm (λexcitation = 531 nm) were obtained every 12 min for 1 h using a CLARIOstar plate reader (BMG Labtech). The emission λmax was determined at each timepoint.

Assay [6] relates to C. neoformans. Nature of the assay: membrane depolarization, diS-C3(3). It counts as cell-based, Cryptococcus neoformans. As to conditions: diS-C3(3) emission maximum. As for the experimental part:
as §4

Assay [7] deals with C. neoformans. The experiment in a line: lipid peroxidation, TBARS assay (MDA). It counts as cell-based, Cryptococcus neoformans. As for the experimental part: as §3
In another assay the test system is C. neoformans infection. The experiment in a line: Galleria mellonella survival assay. It is filed as in vivo. The procedure:
(§5) Galleria mellonella larvae were reared and prepared as described previously ([53]). Larvae (n = 12 per treatment) were each inoculated with 10^5 spores or cells of A. fumigatus, C. albicans, or C. neoformans in 10 µL of PBS. […] Treated larvae were incubated at 37°C, and mortality was evaluated every day for 10 days.

The test system of a further assay is A. fumigatus infection. Nature of the assay: Galleria mellonella survival assay. It counts as in vivo. The procedure: as §5
For a further assay, the system named is C. albicans infection. Nature of the assay: Galleria mellonella survival assay. It counts as in vivo. The procedure:
as §5

The subject of assay [8] is C. albicans. The experiment in a line: ROS accumulation, DCFDA. It counts as cell-based, Candida albicans. The procedure: (§6) All cultures were incubated for 6 h and then labeled with 20 µM DCFDA in PBS for 30 min. Labeled cultures were transferred into a microplate, and fluorescence intensity was measured using a CLARIOstar plate reader (BMG Labtech).
A further assay relates to Cryptococcus neoformans. Nature of the assay: time-kill assay. It is filed as cell-based. As to conditions: 1× MIC, C. neoformans. The procedure:
(§7) Cultures were incubated at 37°C with shaking at 200 rpm. Aliquots were withdrawn at 12, 24, 36, and 48 h post-treatment for both species, and additionally at 60 and 72 h for C. neoformans, then back-plated onto SDA. Viable cell counts were obtained after 48 h.

Another assay relates to Candida albicans. Nature of the assay: time-kill assay. It counts as cell-based. As to conditions: 2× MIC, C. albicans. The procedure:
as §7

Assay [9] deals with C. neoformans. Nature of the assay: ROS accumulation, DCFDA. It counts as cell-based, Cryptococcus neoformans. The procedure: as §6
For a further assay, the system named is fungal biofilms. Nature of the assay: biofilm XTT assay, summary across all biofilms tested. As to conditions: alone. For orientation: Formazan colour is commonly taken as a measure of viable cells.
Assay [10] concerns C. albicans. The experiment in a line: membrane permeabilization, nucleic acid leakage. It is filed as cell-based, Candida albicans. The procedure: as §2
In assay [11] the test system is C. neoformans. The experiment in a line: membrane fluidity, TMA-DPH anisotropy. It is filed as cell-based, Cryptococcus neoformans. As for the experimental part: (§8) Candida albicans cells were incubated for 6 h, and C. neoformans cells were incubated for 9 h at 30°C, washed, then labeled with 2 µM TMA-DPH in PBS for 10 min. […] Mycelia were fixed, and protoplasts were prepared as described previously ([50]). Protoplasts were washed twice and labeled with 2 µM TMA-DPH in PBS for 30 min. For all labeled cultures, parallel and perpendicular fluorescence intensities were measured at 440 nm in a CLARIOstar plate reader (BMG Labtech), and anisotropy was calculated.

Assay [12] concerns A. fumigatus. Nature of the assay: ROS accumulation, DCFDA. It is filed as cell-based, Aspergillus fumigatus. As for the experimental part:
as §6

Another assay deals with Proteus vulgaris. The experiment in a line: antibacterial MIC. It counts as cell-based. The source says:
(§9) […]; Table S3). […]. […] […].

The subject of the next assay is Staphylococcus aureus. Nature of the assay: antibacterial MIC. It counts as cell-based.
Excerpt: as §9

For the next assay, the system named is Enterobacter aerogenes. Nature of the assay: antibacterial MIC. It counts as cell-based. As to conditions: Klebsiella aerogenes.
Excerpt: as §9

In a further assay the test system is Streptococcus pneumoniae. The experiment in a line: antibacterial MIC. It is filed as cell-based.
Excerpt: as §9

The next assay concerns Klebsiella pneumoniae. Nature of the assay: antibacterial MIC. It counts as cell-based.
Excerpt: as §9

For the next assay, the system named is Escherichia coli. The experiment in a line: antibacterial MIC. It is filed as cell-based.
Excerpt: as §9

The next assay concerns Bacillus subtilis. The experiment in a line: antibacterial MIC. It counts as cell-based.
Excerpt: as §9

The test system of the next assay is Salmonella Typhimurium. Nature of the assay: antibacterial MIC. It counts as cell-based. Conditions: Salmonella enterica.
Excerpt: as §9

Another assay concerns Pseudomonas aeruginosa. Nature of the assay: antibacterial MIC. It is filed as cell-based.
Excerpt: as §9

The next assay concerns Streptococcus pyogenes. Nature of the assay: antibacterial MIC. It counts as cell-based.
Excerpt: as §9

Another assay deals with Acinetobacter baumanii. Nature of the assay: antibacterial MIC. Conditions: Acinetobacter baumannii. It is filed as cell-based.
Excerpt: as §9

For assay [13], the system named is A. fumigatus. Nature of the assay: membrane fluidity, TMA-DPH anisotropy. It is filed as cell-based, Aspergillus fumigatus. The procedure: as §8
Assay [14] relates to A. fumigatus. The experiment in a line: lipid peroxidation, TBARS assay (MDA). It is filed as cell-based, Aspergillus fumigatus. The procedure: as §3
Assay [15] concerns C. albicans. Nature of the assay: membrane fluidity, TMA-DPH anisotropy. It is filed as cell-based, Candida albicans. The procedure:
as §8

The subject of assay [16] is A. fumigatus. The experiment in a line: ergosterol quantitation. It is filed as cell-based, Aspergillus fumigatus. Conditions: 1× MIC vs no-drug control. The procedure:
as §1

≈ marks a conversion by molar mass, not a printed value.

One may read the MIC as the least concentration at which growth counts as inhibited. For `CCCCCCCCCCn1cc[n+](CC(O)(P(=O)(O)O)P(=O)(O)O)c1` [10-ZOL, Decyl-zoledronate], the membrane ergosterol content entry in the assay with C. albicans [1] and with A. fumigatus [16] was “significant depletion of membrane ergosterol” in each case. For the same molecule, the “concentration giving significant increase in leaked nucleic acid” value with C. neoformans [2], in the assay on A. fumigatus [4] and with C. albicans [10] was ≥ 1 × MIC in each case. For the same molecule, the “concentration at which lipid peroxidation increase became significant” value in the assay with C. albicans [3] was determined as 1 × MIC; with C. neoformans [7], 1 × MIC; in the assay on A. fumigatus [14], 2 × MIC. The membrane depolarization result in the assay with A. fumigatus [5] and in the assay with C. neoformans [6] was “dose-dependent depolarization effect” throughout. Further, the “survival compared with […] AMB” value in the assay on C. neoformans infection (64 µg/mL) is recorded as “outperformed AMB”; in the assay with A. fumigatus infection (64 µg/mL), “no significant difference in survival”; in the assay on C. albicans infection (64 µg/mL), “outperformed AMB”. The “larval mortality vs no-drug control” value with C. neoformans infection (single infusion of 64 µg/mL), with A. fumigatus infection (single infusion of 64 µg/mL) and with C. albicans infection (single infusion of 64 µg/mL) was “significantly reduced mortality” throughout. For the same molecule, the “concentration at which ROS (DCFDA fluorescence) increase became significant” value in the assay with C. albicans [8], with C. neoformans [9] and in the assay on A. fumigatus [12] was 2 × MIC in each case. Further, the “time at which viable cell count is significantly decreased from starting inoculum” value in the assay with Cryptococcus neoformans is on record as 24 h; with Candida albicans, 12 h. The molecule also came in with an SIC80 range with fungal biofilms of 8 to 128 µg/mL. In addition, the “concentration from which anisotropy differs significantly from no-drug control” value was 1 × MIC in the assay on C. neoformans [11], 2 × MIC with A. fumigatus [13] and 0.5 × MIC with C. albicans [15]. Besides, the MIC in the assay on Proteus vulgaris was > 16 mg/L; against Staphylococcus aureus, 16 mg/L; against Enterobacter aerogenes, 16 mg/L; in the assay on Streptococcus pneumoniae, 16 mg/L; in the assay on Klebsiella pneumoniae it was 16 mg/L; in the assay with Escherichia coli, 16 mg/L. For the same molecule, the minimum inhibitory concentration (MIC) was > 16 mg/L against Bacillus subtilis; > 16 mg/L with Salmonella Typhimurium; > 16 mg/L with Pseudomonas aeruginosa; 16 mg/L against Streptococcus pyogenes; > 16 mg/L in the assay with Acinetobacter baumanii.

In the case of `O=P(O)(O)C(O)(Cn1ccnc1)P(=O)(O)O` [ZOL, zoledronate], the MIC with Proteus vulgaris was 128 mg/L (≈ 470 µM); with Staphylococcus aureus it was 256 mg/L (≈ 941 µM); against Enterobacter aerogenes it was > 256 mg/L; in the assay with Streptococcus pneumoniae, > 256 mg/L; in the assay with Klebsiella pneumoniae, 256 mg/L (≈ 941 µM); with Escherichia coli it was 256 mg/L (≈ 941 µM). Also, the MIC against Bacillus subtilis was 256 mg/L (≈ 941 µM); against Salmonella Typhimurium, 256 mg/L (≈ 941 µM); in the assay with Pseudomonas aeruginosa it was > 256 mg/L; with Streptococcus pyogenes, 256 mg/L (≈ 941 µM); against Acinetobacter baumanii, > 256 mg/L.
